{"source": "patent US6552082B2", "about": "“Solution of N-[o-(p-pivaloyloxybenzenesulfonylamino)benzoyl] glycine monosodium salt tetra-hydrate and drug product thereof” (Ono Pharmaceutical Co., Ltd., priority 2000, dated 2003)", "key": {"[1]": {"test": "solubility of the compound (I) in normal solvents", "type": "physicochemical"}, "[2]": {"target": "T1, elastase (Homo sapiens, UniProt P08246)", "T1 sequence (P08246 30-267)": "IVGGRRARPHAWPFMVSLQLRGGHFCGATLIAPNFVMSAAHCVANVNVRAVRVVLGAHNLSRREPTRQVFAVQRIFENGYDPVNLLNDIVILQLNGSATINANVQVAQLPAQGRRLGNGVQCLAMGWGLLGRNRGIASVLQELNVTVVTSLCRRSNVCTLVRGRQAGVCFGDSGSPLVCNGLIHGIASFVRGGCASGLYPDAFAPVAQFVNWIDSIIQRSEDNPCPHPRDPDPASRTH", "settings": "background statement; cited from earlier work"}, "[3]": {"test": "admixing with amino acid infusion as replacement of pH adjusters", "type": "physicochemical", "settings": "compound (I) 5 mg/mL admixed with KYORYOKU MORIAMINE infusion"}, "[4]": {"test": "amount of sodium hydroxide and stability in water/ethanol solution", "type": "physicochemical", "settings": "pH over 8.5", "method": "To the mixture added water in order to fill up to 5 mL of total solution."}, "[5]": {"test": "change of pH in the time course on freeze-dried product comprising sodium carbonate", "type": "physicochemical", "method": "(a) when the aqueous solution was prepared,\n(b) when the prepared aqueous solution was filled in each vial (5 mL), freeze-dried and then dissolved in water (10 mL),\n(c) when the prepared aqueous solution was filled in each vial (5 mL), freeze-dried and the formulation obtained was left at 60 degrees Centigrade for two weeks and dissolved in water (10 mL)."}, "[6]": {"test": "stability of the drug products (pH and residual rate of freeze-dried products)", "type": "physicochemical", "method": "(i) an aqueous solution of tri-sodium phosphate dodecahydrate (36.4 mg/mL; 50 mL),\n(ii) an aqueous solution of potassium hydroxide (56 mg/mL 6 mL),\n(iii) an aqueous solution of sodium hydroxide (40 mg/mL; 5.6 mL)\n(a) when the aqueous solutions were prepared,\n(b) when the prepared aqueous solutions were filled in each vial (5 mL), freeze-dried and then dissolved in water (10 mL),\n(c) when the prepared aqueous solution was filled in each vial (5 mL), freeze-dried and the drug product was left at 60 degrees Centigrade for two weeks (in case of sodium hydroxide for one month) and dissolved in water (10 mL)."}, "[7]": {"test": "investigation of pH adjusters: amount added, pH and clearness of suspension", "type": "physicochemical", "method": "The present inventors have investigated the amounts of di-sodium hydrogen phosphate, tri-sodium phosphate, potassium hydroxide and sodium hydroxide to add and the changes in pH thereby.\nDi-sodium hydrogen phosphate dodecahydrate (80 g) was added to water (200 mL) and dissolved by heating. To the above suspension under stirring with a stirrer was added the aqueous solution of Di-sodium hydrogen phosphate dodecahydrate by 5 mL each and the pH was measured.\nTo the suspension under stirring with a stirrer was added an aqueous solution of […] (4 g/100 mL) by 5 mL portion each and the pH was measured.\nTo the suspension under stirring with a stirrer was added 1N aqueous solution of potassium hydroxide (0.5 mL portion each) and the pH of the solution was measured.\nTo the suspension under stirring with a stirrer was added 1N aqueous solution of sodium hydroxide (1 mL portion each) and the pH was measured."}, "[8]": {"test": "investigation of a solution of high concentration", "type": "physicochemical", "settings": "400 mg compound (I), 100 mg mannitol, 24 mg sodium hydroxide, water to 5 mL", "method": "To the mixture under stirring, was added IN aqueous solution of sodium hydroxide (0.6 mL: corresponds to 24 mg). Thereto was added water in order to fill up to 5 mL of total amount. […] Therefore it was impossible to freeze-dry the suspension."}, "[9]": {"settings": "formulation with sodium carbonate"}}, "data": [{"molecule": "CC(C)(C)C(=O)Oc1ccc(S(=O)(=O)Nc2ccccc2C(=O)NCC(=O)[O-])cc1.[Na+]", "note": "[compound (I), N-[o-(p-pivaloyloxybenzenesulfonylamino)benzoyl]glycine monosodium salt tetra-hydrate]", "values": [{"measurement": "solubility", "setting": "[1]; ethanol, organic solvent or mixture, read-out: solubility in ethanol", "result": "< 6", "unit": "mg/mL"}, {"measurement": "solubility", "setting": "[1]; water, read-out: solubility in water", "result": "< 0.4", "unit": "mg/mL"}, {"measurement": "inhibitory activity against elastase", "setting": "[2]", "result": "has an inhibitory activity against elastase"}, {"measurement": "pH after preparation", "setting": "[3]", "result": 6.36}, {"measurement": "pH after twenty-four hours", "setting": "[3]", "result": 6.13}, {"measurement": "residual rate of the compound (I) after twenty-four hours", "setting": "[3]", "result": 54.1, "unit": "%"}, {"measurement": "residual rate of the compound (I)", "setting": "[4]", "result": "over 98%"}, {"measurement": "pH (a) when the aqueous solution was prepared", "setting": "[5]; formulation of JP kokai hei 5-194366 with sodium chloride and sodium carbonate", "result": 7.80}, {"measurement": "pH (b) freeze-dried and then dissolved in water (10 mL)", "setting": "[5]; [9]", "result": 8.11}, {"measurement": "pH (c) freeze-dried, left at 60 degrees Centigrade for two weeks, dissolved in water (10 mL)", "setting": "[5]; [9]", "result": 8.44}, {"measurement": "residual rate of the compound (I)", "setting": "[5]; freeze-dried product with sodium carbonate, 60 degrees Centigrade, two weeks", "result": 91.4, "unit": "%"}, {"measurement": "solubility", "setting": "[6]; aqueous buffer, solvent exclusively water, with pH adjuster, read-out: solubility of the above solution (water with pH adjuster)", "result": "~20", "unit": "mg/mL"}, {"measurement": "residual rate of the compound (I)", "setting": "[6]; freeze-dried product with sodium hydroxide, 60 degrees Centigrade, 1 month", "result": 98.3, "unit": "%"}, {"measurement": "pH when the suspension turned into a clear aqueous solution", "setting": "[7]; 5 mL of 1N potassium hydroxide added", "result": 7.20}, {"measurement": "pH when the suspension turned into a clear aqueous solution", "setting": "[7]; 7 mL of 1N sodium hydroxide added", "result": 7.44}, {"measurement": "pH when the suspension turned into a clear aqueous solution", "setting": "[7]; 45 mL of tri-sodium phosphate dodecahydrate solution added", "result": 7.19}, {"measurement": "condition of the suspension (clear solution or not)", "setting": "[7]; di-sodium hydrogen phosphate dodecahydrate solution 200 mL (80 g), pH 8.18", "result": "did not turn into a clear aqueous solution"}, {"measurement": "condition of the mixture (clear solution or not)", "setting": "[8]; ethanol 1.0 mL", "result": "clear solution"}, {"measurement": "condition of the mixture (clear solution or not)", "setting": "[8]; no ethanol", "result": "did not turn into a clear solution but a white suspension"}]}]}
